Experimental data: ChEMBL document CHEMBL1201862, “PubChem BioAssay data set” (2004)
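Five compound concentrations were applied to cells in 96-well plates for 48 hours; endpoints were derived by simple linear interpolation of the resulting dose-response curve. Here, GI50 denotes the concentration required for 50% inhibition of growth.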 The source made the active and inactive calls. No stated cut-off is given here; in the data, active = GI50 up to about 1.1 µM and inactive = higher.

How the values were obtained:
Experiment in all cases: NCI tumour cell line growth inhibition, 48 h
A549 = tested on: A549
CAKI-1 = tested on: CAKI-1
CCRF-CEM = tested on: CCRF-CEM
DU-145 = tested on: DU-145
HT-29 = tested on: HT-29
M14 = tested on: M14
MCF7 = tested on: MCF7
MDA-N = tested on: MDA-N
Malme-3M = tested on: Malme-3M
NCI-H522 = tested on: NCI-H522
OVCAR-3 = tested on: OVCAR-3
PC-3 = tested on: PC-3
SF-268 = tested on: SF-268
SF-539 = tested on: SF-539
SK-MEL-2 = tested on: SK-MEL-2
SNB-19 = tested on: SNB-19
SW-620 = tested on: SW-620
TK-10 = tested on: TK-10
UACC-257 = tested on: UACC-257
UO-31 = tested on: UO-31

SMILES | GI50 (A549) | GI50 (CAKI-1) | GI50 (CCRF-CEM) | GI50 (DU-145) | GI50 (HT-29) | GI50 (M14) | GI50 (MCF7) | GI50 (MDA-N) | GI50 (Malme-3M) | GI50 (NCI-H522) | GI50 (OVCAR-3) | GI50 (PC-3) | GI50 (SF-268) | GI50 (SF-539) | GI50 (SK-MEL-2) | GI50 (SNB-19) | GI50 (SW-620) | GI50 (TK-10) | GI50 (UACC-257) | GI50 (UO-31)
O=c1sc2c(s1)-c1sc(=O)sc1SS2 | > 100 µM (inactive) | > 100 µM (inactive) | > 54.8 µM (inactive) | > 54 µM (inactive) | > 42.1 µM (inactive) | 48.2 µM (inactive) | > 100 µM (inactive) | > 100 µM (inactive) | > 100 µM (inactive) | > 91.4 µM (inactive) | > 100 µM (inactive) | > 100 µM (inactive) | > 100 µM (inactive) | 41.5 µM (inactive) | > 100 µM (inactive) | > 100 µM (inactive) | > 100 µM (inactive) | > 52.6 µM (inactive) | > 96.8 µM (inactive) | > 100 µM (inactive)
N#Cc1c(-c2ccc(Cl)cc2)c2c(n(C3OC(CO)C(O)C(O)C3O)c1=S)CCCC2 (stereo not given) | > 100 µM (inactive) | > 100 µM (inactive) | 49.3 µM (inactive) | > 100 µM (inactive) | 73.3 µM (inactive) | > 100 µM (inactive) | 55.2 µM (inactive) | 44.2 µM (inactive) | 50.8 µM (inactive) | 63.2 µM (inactive) | 69.8 µM (inactive) | 56.2 µM (inactive) | > 100 µM (inactive) | > 100 µM (inactive) | > 100 µM (inactive) | 39.1 µM (inactive) | 74 µM (inactive) | 72.4 µM (inactive) | > 100 µM (inactive) | 74.5 µM (inactive)
COC(=O)C(CCC(=O)CCl)N1C(=O)c2ccccc2C1=O (stereo not given) | 17.7 µM (inactive) | 15.2 µM (inactive) | 1.67 µM (inactive) | 16.9 µM (inactive) | 9.64 µM (inactive) | 5.27 µM (inactive) | 4.57 µM (inactive) | 7.43 µM (inactive) | 4.57 µM (inactive) | 1.73 µM (inactive) | 11.6 µM (inactive) | 12.9 µM (inactive) | 9.42 µM (inactive) | 12.2 µM (inactive) | 6.9 µM (inactive) | 18.7 µM (inactive) | 3.62 µM (inactive) | 14.5 µM (inactive) | 7.18 µM (inactive) | 14.4 µM (inactive)
O=C1Nc2ccccc2/C1=N/NC(=S)NCc1ccccn1 | 0.466 µM (active) | 0.0951 µM (active) | < 0.01 µM (active) | 0.698 µM (active) | 0.0462 µM (active) | 0.312 µM (active) | < 0.01 µM (active) | 0.975 µM (active) | 2.29 µM (inactive) | 0.17 µM (active) | < 0.01 µM (active) | 0.0508 µM (active) | 0.136 µM (active) | 0.366 µM (active) | 2.9 µM (inactive) | 0.678 µM (active) | 0.126 µM (active) | 2.52 µM (inactive) | 0.47 µM (active) | 0.373 µM (active)
Brc1ccc2[nH]cc(-c3csc(-c4ccccn4)n3)c2c1 | 14.5 µM (inactive) | 17.1 µM (inactive) | 13.2 µM (inactive) | 17.9 µM (inactive) | 5.12 µM (inactive) | 22.2 µM (inactive) | 10.3 µM (inactive) | 27.6 µM (inactive) | 22.1 µM (inactive) | 8.95 µM (inactive) | 9.31 µM (inactive) | 14.2 µM (inactive) | 30.6 µM (inactive) | 25.3 µM (inactive) | 44.8 µM (inactive) | 35 µM (inactive) | 18.4 µM (inactive) | 24.2 µM (inactive) | 23 µM (inactive) | 59.7 µM (inactive)
CCOC(=O)/C(C(=S)NCc1ccccc1)=C(/N)N1CCCC1 | > 100 µM (inactive) | > 100 µM (inactive) | > 100 µM (inactive) | > 100 µM (inactive) | > 100 µM (inactive) | > 100 µM (inactive) | > 100 µM (inactive) | > 100 µM (inactive) | > 100 µM (inactive) | > 100 µM (inactive) | > 100 µM (inactive) | > 100 µM (inactive) | > 100 µM (inactive) | > 100 µM (inactive) | > 100 µM (inactive) | > 100 µM (inactive) | > 100 µM (inactive) | > 100 µM (inactive) | > 100 µM (inactive) | 56.9 µM (inactive)
O=[N+]([O-])c1ccc(C(Nc2ccccc2)c2ccc3cccnc3c2O)cc1 (stereo not given) | 8.04 µM (inactive) | 6.25 µM (inactive) | 2.17 µM (inactive) | 9.14 µM (inactive) | 7.08 µM (inactive) | 9.4 µM (inactive) | 4.83 µM (inactive) | 23.7 µM (inactive) | 14.7 µM (inactive) | 4.24 µM (inactive) | 4.02 µM (inactive) | 10.8 µM (inactive) | 4.46 µM (inactive) | 3.72 µM (inactive) | 24.3 µM (inactive) | 7.74 µM (inactive) | 6.27 µM (inactive) | 8.49 µM (inactive) | 13.8 µM (inactive) | 6.78 µM (inactive)
NC(=O)c1ncn(C2OC(CO)C(O)C2O)c1NC=O (stereo not given) | > 100 µM (inactive) | > 100 µM (inactive) | > 100 µM (inactive) | > 100 µM (inactive) | > 100 µM (inactive) | > 100 µM (inactive) | > 100 µM (inactive) | > 100 µM (inactive) | > 100 µM (inactive) | > 100 µM (inactive) | > 100 µM (inactive) | > 100 µM (inactive) | > 100 µM (inactive) | > 100 µM (inactive) | > 100 µM (inactive) | > 100 µM (inactive) | > 100 µM (inactive) | > 100 µM (inactive) | > 100 µM (inactive) | > 100 µM (inactive)
